# According to article PMC10060354, “Discovery of a small molecule ligand of FRS2 that inhibits invasion and tumor growth” (Cellular Oncology, 2022):
# Legend:
# AGS = assay: SIA, collagen I invasion; type: cell-based; settings: Homo sapiens
# Experimental: (§1) 1000—2500 cells/well in 100 μl were seeded in 96 well Corning® Spheroid microplate (CLS4520, Sigma-Aldrich) or in cell-repellent 96 well microplate (650,790, Greiner Bio-one). SIA and analysis was performed as described before. In brief: After spheroid formation (24 – 72 h after seeding), 70 µl medium was removed and replaced with the collagen mixture (2.5 mg/ml Pure Col Collagen I (Advanced Biomatrix)), DMEM 1x (from 10 × stock, Sigma, D2429) and 0.4% Sodium bicarbonate (Sigma, S8761)), resulting in a final collagen concentration of 1.75 mg/ml. Embedded spheroids were stimulated with bFGF (100 ng/ml if not otherwise stated), HGF (30 ng /ml) or EGF (20 ng/ml) and distance of invaded cells quantified 24 – 48 h after embedding. Compounds and BGJ398 were added in Dimethylsulfoxid (DMSO) and corresponding DMSO concentrations were used in control samples.
# SKOV3 = assay: SIA, collagen I invasion; type: cell-based; settings: Homo sapiens
# Experimental: as §1
# FRS2_PTB = molecular target: T1, FRS2_PTB (Homo sapiens, UniProt Q8WU20); assay: nano differential scanning fluorimetry (nanoDSF); type: binding; settings: 500 μM ligand
# T1 construct: FRS2-PTB 11-140aa; 6xHis; made in house; host or cells: E. coli BL21 (DE3)
# T1 sequence (Q8WU20 11-140): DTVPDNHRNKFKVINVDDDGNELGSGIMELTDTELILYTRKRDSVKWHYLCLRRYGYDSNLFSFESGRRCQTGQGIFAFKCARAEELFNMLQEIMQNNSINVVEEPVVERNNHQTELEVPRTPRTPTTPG
# Experimental: Assay establishment and pilot nanoDSF experiments were performed with a Tycho® system. Each experiment was performed by mixing the protein and ligand of interest at a 1:1 ratio and subsequent incubation for 15–30 min at room temperature. Controls of protein alone and ligand alone in identical buffer compositions as for the complex were measured accordingly. The temperature gradient ranged from 35 to 95 °C, and the heating rate was 30 °C/min. Inflection temperatures TI were calculated from the first derivative of the spectra obtained at the ratio of the signals at 350 nm to those at 330 nm. ΔTI of a complex was calculated as following: ΔTI,complex = TI,complex – TI,protein.
# The in-built software version 1.1.5.668 (NanoTemper Technologies, Munich, Germany) and Microsoft Office Excel 365 (Microsoft Corp., Seattle, USA) was used for data analysis. Data was plotted with GraphPad Prism vers. 8.3.0 (GraphPad Software, San Diego, USA).
# Purified FRS2_PTB or GB1_FRS2_PTB protein tagged with 6 × Histidine residues and the B1 immunoglobulin binding domain of the streptococcal protein G (GB1) were diluted in the protein buffer (100 mM sodium phosphate, 50 mM NaCl, 0.5 mM EDTA, 50 mM arginine, 1 mM TCEP, pH 7.0) to 30 μM, GB-1 to 40 μM. FGFR_PEP, compounds or paracetamol (PARA) as negative control were dissolved at 1 mM in the protein buffer supplemented with 10% DMSO. Compound and protein were mixed at 1:1 volume ratio yielding a final concentration of 15 μM and 20 μM for FRS2_PTB/GB1_FRS2_PTB and GB1, respectively, as well as 500 μM for FGFR_PEP or compounds. The mixture was incubated for 15 min. Each compound was measured in triplicates. Protein controls were measured in six replicates in the beginning. The quality of the screen was assessed by the Z-factor. nanoDSF validation studies were performed on a Prometheus® system in high sensitivity capillaries. Samples were heated with 1 °C/min from 20 to 95 °C. Each compound was measured in triplicates. GB1-FRS2_PTB and GB1 were diluted in the protein buffer (100 mM sodium phosphate, 50 mM NaCl, 0.5 mM EDTA, 50 mM arginine, 1 mM TCEP, pH 7.0) to 30 μM. Compounds 3.3, 3.4, 3.18 as well as the 3.18 analogues were dissolved in 100% DMSO at 50 or 100 mM and further diluted to 1 mM with a final DMSO-concentration of 100%. FGFR_PEP was dissolved at 1 mM in the protein buffer supplemented with 10% DMSO. Compound and protein were mixed at 1:1 volume ratio yielding final concentrations of 15 μM protein and 500 μM for the compounds. FGFR_PEP was measured against both GB1-FRS2_PTB and GB1, all other compounds only against GB1-FRS2_PTB. The mixture was incubated for 15 min before measurement. The data was analyzed for both the ratio of signals at 330 and 350 nm and at 350 nm alone. […]
# DAOY cells = assay: SIA, EGF-induced cell invasion; type: cell-based, human; settings: 10 µM
# Experimental: as §1
# human cancer cell lines = assay: CellTiter-Glo viability (2D culture or 3D spheroids), cell line panel; type: cell-based; settings: for reduction of viability: DAOY, AGS and HCT116 cells, between 2.7 and 20 µM, 48 h
# Experimental: Cell viability was determined using CellTiter-Glo® 2D or 3D cell viability assays (#G9242, #G9682, Promega). 500 cells/25 µl were seeded in flat bottom (#781,091, Greiner bio-one) or U-low adhesion (#4516, Corning) 384-well plate, 24 h prior to treatment. Increasing concentrations of compounds are deposited on cells using a HP Digital Drug Dispenser with DMSO total volume normalization. After 48 h, the CellTiter-Glo® 2D or 3D reagent was added (volume/volume) following manufacturer’s instructions. Plates were incubated at RT (room temperature) under agitation for 30 min and luminescence representing the number of viable cells was quantified with a Cytation 3 imaging reader (BioTek®). Experiments were performed independently three times with three technical replicas each.
# GB1-FRS2_PTB:FGFR_PEP = molecular target: T2, GB1-FRS2_PTB:FGFR_PEP (Homo sapiens, UniProt Q8WU20); assay: nanoDSF competition assay with the FGFR peptide; type: binding; settings: PTB domain:FGFR peptide 1:5; 500 μM compound
# T2 construct: FRS2-PTB 11-140aa; 6xHis (N); made in house; host or cells: E. coli BL21 (DE3) for the protein
# T2 sequence (Q8WU20 11-140): T1 sequence (Q8WU20 11-140)
# Experimental: Purified FRS2_PTB or GB1_FRS2_PTB protein tagged with 6 × Histidine residues and the B1 immunoglobulin binding domain of the streptococcal protein G (GB1) were diluted in the protein buffer (100 mM sodium phosphate, 50 mM NaCl, 0.5 mM EDTA, 50 mM arginine, 1 mM TCEP, pH 7.0) to 30 μM, GB-1 to 40 μM. FGFR_PEP, compounds or paracetamol (PARA) as negative control were dissolved at 1 mM in the protein buffer supplemented with 10% DMSO. Compound and protein were mixed at 1:1 volume ratio yielding a final concentration of 15 μM and 20 μM for FRS2_PTB/GB1_FRS2_PTB and GB1, respectively, as well as 500 μM for FGFR_PEP or compounds. The mixture was incubated for 15 min. Each compound was measured in triplicates. Protein controls were measured in six replicates in the beginning. The quality of the screen was assessed by the Z-factor. nanoDSF validation studies were performed on a Prometheus® system in high sensitivity capillaries. Samples were heated with 1 °C/min from 20 to 95 °C. Each compound was measured in triplicates. GB1-FRS2_PTB and GB1 were diluted in the protein buffer (100 mM sodium phosphate, 50 mM NaCl, 0.5 mM EDTA, 50 mM arginine, 1 mM TCEP, pH 7.0) to 30 μM. Compounds 3.3, 3.4, 3.18 as well as the 3.18 analogues were dissolved in 100% DMSO at 50 or 100 mM and further diluted to 1 mM with a final […]. FGFR_PEP was dissolved at 1 mM in the protein buffer supplemented with 10% DMSO. Compound and protein were mixed at 1:1 volume ratio yielding final concentrations of 15 μM protein and 500 μM for the compounds. FGFR_PEP was measured against both GB1-FRS2_PTB and GB1, all other compounds only against GB1-FRS2_PTB. The mixture was incubated for 15 min before measurement. The data was analyzed for both the ratio of signals at 330 and 350 nm and at 350 nm alone. For the competition assays, the PTB domain and the FGFR peptide were mixed at a 1:5 ratio, and ligand competition was assayed in the presence of 500 μM compound.
SMILES,nanoDSF shift of the inflection point of the melting curve (ΔTm) (FRS2_PTB) [°C],effect on EGF-induced cell invasion (result in words) (DAOY cells),reduction of viability (human cancer cell lines),nanoDSF competition with FGFR peptide (result in words) (GB1-FRS2_PTB:FGFR_PEP),further results
O=[N+]([O-])c1c(Cl)cc(O)c2c1C1C=CCC1C(c1ccc(Cl)cc1)N2 (stereo not shown) [Compound 7],,only moderately reduced,more than 50%,negative shift in compound-mixed samples,"EC50 (AGS; 100 ng/ml bFGF): 4.66 µM; EC50 (SKOV3; SK-OV-3, 100 ng/ml bFGF): 4.5 µM; IC50 (human cancer cell lines; Homo sapiens, read-out: IC50 of cell viability, all lines): < 20 µM"
N#Cc1c(Cl)cc(O)c2c1C1C=CCC1C(c1ccc(Cl)cc1)N2 (stereo not shown) [Compound 14],,only moderately reduced,more than 50%,,
O=[N+]([O-])c1c(Cl)cc(O)c2c1C1C=CCC1C(c1ccc(Cl)cc1Cl)N2 (stereo not shown) [Compound 8],,,,negative shift in compound-mixed samples,

# The next lines start with results.
nanoDSF shift of the inflection point of the melting curve (ΔTm) (FRS2_PTB) [°C],SMILES,effect on EGF-induced cell invasion (result in words) (DAOY cells),reduction of viability (human cancer cell lines),nanoDSF competition with FGFR peptide (result in words) (GB1-FRS2_PTB:FGFR_PEP),further results
> 2.0,CC(C)C[C@@H](CO)NCc1cc(O)c2cc(F)ccc2n1 [Compound 3.14],,,,"inhibition at 10 µM (AGS; 10 µM): ~50%; inhibition at 10 µM (SKOV3; SK-OV-3, 10 µM): ~50%"
~1.5,COc1ncc(C(C)NC2CC(C)(C)NC(C)(C)C2)cc1Cl (stereo not shown) [Compound 3.3],,,,
